Our source for the IC50 values is patent publication US9694016B2 (Novartis AG, priority 2013, dated 2017).

Chain of b-Raf (V600E) (P15056 whole entry V600E): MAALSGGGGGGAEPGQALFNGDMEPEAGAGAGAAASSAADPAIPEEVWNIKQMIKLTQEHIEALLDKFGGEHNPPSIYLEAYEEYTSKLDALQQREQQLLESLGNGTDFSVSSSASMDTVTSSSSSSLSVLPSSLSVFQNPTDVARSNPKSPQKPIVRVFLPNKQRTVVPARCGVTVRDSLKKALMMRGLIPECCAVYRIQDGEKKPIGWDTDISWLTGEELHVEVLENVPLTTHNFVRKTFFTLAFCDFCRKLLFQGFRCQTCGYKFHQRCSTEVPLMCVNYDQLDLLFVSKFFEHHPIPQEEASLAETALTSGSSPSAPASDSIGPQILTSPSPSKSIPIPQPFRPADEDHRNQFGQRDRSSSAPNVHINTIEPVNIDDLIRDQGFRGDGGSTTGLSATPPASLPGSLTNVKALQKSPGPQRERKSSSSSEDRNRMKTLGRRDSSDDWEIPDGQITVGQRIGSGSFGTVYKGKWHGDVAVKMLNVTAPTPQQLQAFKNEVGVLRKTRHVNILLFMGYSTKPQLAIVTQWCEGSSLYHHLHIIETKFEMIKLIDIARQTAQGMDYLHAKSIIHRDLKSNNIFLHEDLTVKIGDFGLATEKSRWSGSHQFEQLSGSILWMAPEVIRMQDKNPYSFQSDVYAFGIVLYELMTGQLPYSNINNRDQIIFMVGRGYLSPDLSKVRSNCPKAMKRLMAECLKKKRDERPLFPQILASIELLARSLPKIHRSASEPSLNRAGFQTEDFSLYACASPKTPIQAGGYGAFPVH

The first test addresses b-Raf (V600E) (Homo sapiens (Human), UniProt P15056, V600E). The following applies: read-out: b-Raf IC-50; AlphaScreen, 60 min pre-incubation, 3 hours reaction. A general note: Bead proximity is the source of the signal in Alpha formats.
`Cc1ncc(NC(=O)c2ccnc(C(F)F)c2)cc1-c1cc(N2CCOCC2)c(=O)n(C)n1` [Example 680, 2-(difluoromethyl)-N-(6-methyl-5-(1-methyl-5-morpholino-6-oxo-1,6-dihydropyridazin-3-yl)pyridin-3-yl)isonicotinamide]: the IC50 stood at 14.6 nM. Still for that read-out and setting: to `Cc1ncc(NC(=O)c2ccnc(C(C)(F)F)c2)cc1-c1cc(N2CCOCC2)c(=O)n(C)n1` [Example 678, 2-(1,1-difluoroethyl)-N-(6-methyl-5-(1-methyl-5-morpholino-6-oxo-1,6-dihydropyridazin-3-yl)pyridin-3-yl)isonicotinamide] belongs 6.4 nM; to `CCOc1nnc(-c2cc(NC(=O)c3ccnc(C(F)(F)CC)c3)ccc2C)cc1N1CCOCC1` [Example 560, 2-(1,1-difluoropropyl)-N-(3-(6-ethoxy-5-morpholinopyridazin-3-yl)-4-methylphenyl)isonicotinamide], 1 nM. On the same count and under the same terms, to `Cc1ccc(NC(=O)c2cccc(C(F)(F)F)c2)cc1-c1nc(N2CCOCC2)c2[nH]ccc2n1` [Example 830, N-(4-methyl-3-(4-morpholino-5H-pyrrolo[3,2-d]pyrimidin-2-yl)phenyl)-3-(trifluoromethyl)benzamide] belongs 0.6 nM; to `COc1nnc(-c2cc(NC(=O)c3ccnc(C(C)(C)C#N)c3)ccc2C)cc1N1CCOCC1` [Example 558, 2-(2-cyanopropan-2-yl)-N-(3-(6-methoxy-5-morpholinopyridazin-3-yl)-4-methylphenyl)isonicotinamide], 2.1 nM. Same read-out and setting: to `Cc1ncc(NC(=O)c2ccnc(C(C)(C)C#N)c2)cc1-c1cc(N2CCOCC2)n(C)c(=O)c1` [Example 499, 2-(2-cyanopropan-2-yl)-N-(1′,2-dimethyl-6′-morpholino-6′-oxo-1′,2′-dihydro-[3,4′-bipyridin]-5-yl)isonicotinamide] belongs 21.9 nM. As for `CCOc1nnc(-c2cc(NC(=O)c3ccnc(C(C)(C)C#N)c3)cnc2C)cc1N1CCOC[C@H]1C` [Example 623, (R)-2-(2-cyanopropan-2-yl)-N-(5-(6-ethoxy-5-(3-methylmorpholino)pyridazin-3-yl)-6-methylpyridin-3-yl)isonicotinamide], the IC50 is 56.7 nM. Still for that read-out and setting: to `Cc1ncc(NC(=O)c2ccnc(C(C)(C)F)c2)cc1-c1cc(N2CCOCC2)c(=O)n(C)n1` [Example 677, 2-(2-fluoropropan-2-yl)-N-(6-methyl-5-(1-methyl-5-morpholino-6-oxo-1,6-dihydropyridazin-3-yl)pyridin-3-yl)isonicotinamide] belongs 12.7 nM.

Turning to `CCNc1nc(-c2cc(NC(=O)c3ccnc(C4COC4)c3)ccc2C)cc(N2CCOCC2)n1` [Example 707, N-(3-(2-(ethylamino)-6-morpholinopyrimidin-4-yl)-4-methylphenyl)-2-(oxetan-3-yl)isonicotinamide], the IC50 was determined as 1.9 nM. Regarding `COCCOc1nnc(-c2cc(NC(=O)c3ccnc(C(C)(C)F)c3)ccc2C)cc1N1CCOCC1` [Example 600, 2-(2-fluoropropan-2-yl)-N-(3-(6-(2-methoxyethoxy)-5-morpholinopyridazin-3-yl)-4-methylphenyl)isonicotinamide], the IC50 amounted to 0.8 nM.

Consider `Cc1ccc(NC(=O)c2ccnc(C(C)(C)C#N)c2)cc1-c1cc(N2CCOCC2)nc(N[C@H](C)CO)n1` [Example 749, (R)-2-(2-cyanopropan-2-yl)-N-(3-(2-((1-hydroxypropan-2-yl)amino)-6-morpholinopyrimidin-4-yl)-4-methylphenyl)isonicotinamide], for which the IC50 is 1.9 nM. For `Cc1ccc(C(=O)Nc2cccc(-c3nnco3)c2)cc1-c1cc(N2CCOCC2)c(=O)n(C)c1` [Example 437, N-(3-(1,3,4-oxadiazol-2-yl)phenyl)-4-methyl-3-(1-methyl-5-morpholino-6-oxo-1,6-dihydropyridin-3-yl)benzamide], the IC50 was determined as 15.4 nM.

The same test, now with this note: read-out: b-Raf IC-50; AlphaScreen, 60 min pre-incubation, reaction 3 hours at room temperature.
`Cc1ccc(NC(=O)c2cncc(C(F)(F)F)c2)cc1-c1cc(N2CCOCC2)c(=O)n(C)n1` [Example 909, N-(4-methyl-3-(1-methyl-5-morpholino-6-oxo-1,6-dihydropyridazin-3-yl)phenyl)-5-(trifluoromethyl)nicotinamide]: the IC50 is 1.56 nM. On to `Cc1ncc(NC(=O)c2cccc(C(F)(F)F)c2)cc1-c1ccnc(N2CCOCC2=O)c1` [Example 1135, N-(2-methyl-2′-(3-oxomorpholino)-[3,4′-bipyridin]-5-yl)-3-(trifluoromethyl)benzamide], for which the IC50 turned out to be 43 nM.

On to `Cc1ncc(NC(=O)c2ccnc(C(C)(C)O)c2)cc1-c1cnc(OC2CCOCC2)c(N2CCOCC2)c1` [Example 939, 2-(2-hydroxypropan-2-yl)-N-(2-methyl-5′-morpholino-6′-((tetrahydro-2H-pyran-4-yl)oxy)-[3,3′-bipyridin]-5-yl)isonicotinamide], for which the IC50 is 15.3 nM. Still for that read-out and setting: the figure for `Cc1ccc(NC(=O)c2ccnc(C(C)(C)C#N)c2)cc1-c1nc2c(c(N3CCOCC3)n1)CCNC2` [Example 865, 2-(2-cyanopropan-2-yl)-N-(4-methyl-3-(4-morpholino-5,6,7,8-tetrahydropyrido[3,4-d]pyrimidin-2-yl)phenyl)isonicotinamide] is 3700 nM; for `CCOc1cc(-c2cc(NC(=O)c3ccnc(C(C)(F)F)c3)cnc2C)cc(N2CCOCC2)n1` [Example 1143, 2-(1,1-difluoroethyl)-N-(2′-ethoxy-2-methyl-6′-morpholino-[3,4′-bipyridin]-5-yl)isonicotinamide] it is 1.81 nM. Regarding `CCOc1ncc(-c2cc(C(=O)Nc3cc(C(F)(F)F)ncc3F)ccc2C)cc1N1CCOCC1` [Example 961, 3-(6-ethoxy-5-morpholinopyridin-3-yl)-N-(5-fluoro-2-(trifluoromethyl)pyridin-4-yl)-4-methylbenzamide], the IC50 came to 1.83 nM. Regarding `Cc1ccc(NC(=O)c2ccnc(C(F)F)c2)cc1-c1cc(NCCO)nc(N2CCOCC2)c1F` [Example 1009, 2-(difluoromethyl)-N-(3-(3-fluoro-6-((2-hydroxyethyl)amino)-2-morpholinopyridin-4-yl)-4-methylphenyl)isonicotinamide], the IC50 is 14.8 nM. Regarding `Cc1c(-c2nc3c(c(N4CCOCC4)n2)CS(=O)(=O)C3)cc(NC(=O)c2cccc(C(F)(F)F)c2)c[n+]1[O-]` [Example 887, 2-methyl-3-(4-morpholino-6,6-dioxido-5,7-dihydrothieno[3,4-d]pyrimidin-2-yl)-5-(3-(trifluoromethyl)benzamido)pyridine 1-oxide], the IC50 is 1300 nM. Regarding `Cc1ncc(NC(=O)c2ccnc(C3CC3)c2)cc1-c1cc(C2COCCO2)nc(N2CCOCC2)c1` (centres unmarked) [Example 1169, N-(2′-(1,4-dioxan-2-yl)-2-methyl-6′-morpholino-[3,4′-bipyridin]-5-yl)-2-cyclopropylisonicotinamide], the IC50 came to 3.01 nM. In the case of `Cc1ncc(NC(=O)c2cnnc(C3(C#N)CC3)c2)cc1-c1cnc(OC2CCOCC2)c(N2CCOCC2)c1` [Example 944, 6-(1-cyanocyclopropyl)-N-(2-methyl-5′-morpholino-6′-((tetrahydro-2H-pyran-4-yl)oxy)-[3,3′-bipyridin]-5-yl)pyridazine-4-carboxamide], the IC50 was 3.89 nM.

Consider `Cc1ncc(NC(=O)c2ccnc(C(C)C)c2)cc1-c1cc(N2CCOCC2)c2nccn2n1` [Example 869, 2-isopropyl-N-(6-methyl-5-(8-morpholinoimidazo[1,2-b]pyridazin-6-yl)pyridin-3-yl)isonicotinamide], for which the IC50 is 1.3 nM. For `Cc1ncc(NC(=O)c2cnnc(C(C)(C)C#N)c2)cc1-c1cnc(OCC(F)F)c(N2CCOCC2)c1` [Example 962, 6-(2-cyanopropan-2-yl)-N-(6′-(2,2-difluoroethoxy)-2-methyl-5′-morpholino-[3,3′-bipyridin]-5-yl)pyridazine-4-carboxamide], the IC50 was 15.4 nM.

Regarding `Cc1ccc(NC(=O)c2ccnc(C3(C#N)CC3)c2)cc1-c1cc(NCCO)nc(N2CCOCC2)c1` [Example 1050, 2-(1-cyanocyclopropyl)-N-(3-(2-((2-hydroxyethyl)amino)-6-morpholinopyridin-4-yl)-4-methylphenyl)isonicotinamide], the IC50 was 1.31 nM.

The test is the same for the next values; noted with them: read-out: b-Raf IC-50; Table 2; AlphaScreen, 3 hours reaction.
As to `Cc1ccc(C(=O)Nc2cccc(C(C)(C)C#N)c2)cc1-c1cc(N2CCOCC2)c(=O)n(C)c1` [Example 431, N-(3-(2-cyanopropan-2-yl)phenyl)-4-methyl-3-(1-methyl-5-morpholino-6-oxo-1,6-dihydropyridin-3-yl)benzamide], the IC50 is 3.7 nM. Same read-out and setting: the figure for `Cc1ccc(NC(=O)c2cccc(CC#N)c2)cc1-c1cc(N2CCOCC2)c(=O)n(C)c1` [Example 359, 3-(cyanomethyl)-N-(4-methyl-3-(1-methyl-5-morpholino-6-oxo-1,6-dihydropyridin-3-yl)phenyl)benzamide] is 5.5 nM; for `CCOc1ncc(-c2cc(NC(=O)c3ccnc(C(C)(C)C#N)c3)ccc2C)cc1N1CCOCC1` [Example 161, 2-(2-cyanopropan-2-yl)-N-(3-(6-ethoxy-5-morpholinopyridin-3-yl)-4-methylphenyl)isonicotinamide] it is 2.9 nM. In the case of `Cc1ccc(C(=O)Nc2ccccc2)cc1-c1cc(N2CCOCC2)c(=O)n(C)c1` [Example 429, 4-methyl-3-(1-methyl-5-morpholino-6-oxo-1,6-dihydropyridin-3-yl)-N-phenylbenzamide], the IC50 stood at 33.7 nM. Still for that read-out and setting: to `Cn1cc(-c2cc(NC(=O)c3ccnc(C(C)(F)F)c3)ccc2Cl)cc(N2CCOCC2)c1=O` [Example 414, N-(4-chloro-3-(1-methyl-5-morpholino-6-oxo-1,6-dihydropyridin-3-yl)phenyl)-2-(1,1-difluoroethyl)isonicotinamide] belongs 1.4 nM; to `Cc1ccc(NC(=O)c2cnnc(C(F)(F)F)c2)cc1-c1cc(N2CCOCC2)c(=O)n(C)c1` [Example 361, N-(4-methyl-3-(1-methyl-5-morpholino-6-oxo-1,6-dihydropyridin-3-yl)phenyl)-6-(trifluoromethyl)pyridazine-4-carboxamide], 2.8 nM. Consider `Cc1ccc(C(=O)Nc2ccccn2)cc1-c1cc(N2CCOCC2)c(=O)n(C)c1` [Example 432, 4-methyl-3-(1-methyl-5-morpholino-6-oxo-1,6-dihydropyridin-3-yl)-N-(pyridin-2-yl)benzamide], for which the IC50 turned out to be 99 nM.
